Reference: patent publication US20260285850A1, “SUBSTITUTED OXAZOLIDINONES AND IMIDAZOLINONES AS HERBICIDES” (FMC CORPORATION, priority 2023, published 2026)

Assays:
Type in all cases: in vivo
[1] = tested on: barnyardgrass (Echinochloa crusgalli); assay: Test B flooded paddy test, visual plant response rating 0-100; settings: 250 g ai/ha, Flood, applied to paddy water, evaluated after 13 days
Summary of the method: (§1)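 Visual scores versus untreated controls were recorded 13 days after treatment of greenhouse-held plants. At the 2-leaf stage, pots were flooded 3 cm above the soil surface and compounds added straight to the water.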

[2] = tested on: ducksalad (Heteranthera limosa); assay: as above; settings: 250 g ai/ha, Flood, applied to paddy water, evaluated after 13 days
Summary of the method: as §1

rice (Oryza sativa) = assay: as above; settings: 250 g ai/ha, Flood, applied to paddy water, evaluated after 13 days
Summary of the method: as §1

[3] = tested on: sedge, umbrella (small-flower umbrella sedge, Cyperus difformis); assay: as above; settings: 250 g ai/ha, Flood, applied to paddy water, evaluated after 13 days
Summary of the method: as §1

[4] = tested on: green foxtail (Setaria viridis); assay: Test A postemergence application, visual injury rating 0-100; settings: 10 days
Summary of the method: (§2)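 Plants were grown in a loam soil-sand blend and treated with test chemical in a non-phytotoxic solvent mixture containing surfactant, either sprayed on soil preemergence or applied postemergence to 2-10 cm plants. After 10 days in a greenhouse, injury was scored visually against untreated controls, 0 meaning no effect and 100 complete control.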

[5] = tested on: ryegrass, Italian (italian ryegrass, Lolium multiflorum); assay: as above; settings: 10 days
Summary of the method: as §2

soybean (Glycine max) [6] = assay: as above; settings: 10 days
Summary of the method: as §2

[7] = tested on: palmer (palmer amaranth, palmer pigweed, Amaranthus palmeri); assay: as above; settings: 10 days
Summary of the method: as §2

[8] = tested on: wheat (Triticum aestivum); assay: as above; settings: 10 days
Summary of the method: as §2

kochia (Bassia scoparia) [9] = assay: as above; settings: 10 days
Summary of the method: as §2

[10] = tested on: horseweed (Erigeron canadensis); assay: as above; settings: 10 days
Summary of the method: as §2

corn (Zea mays) [11] = assay: as above; settings: 10 days
Summary of the method: as §2

[12] = tested on: ragweed (common ragweed, Ambrosia artemisiifolia); assay: as above; settings: 10 days
Summary of the method: as §2

[13] = tested on: barnyardgrass (Echinochloa crus-galli); assay: as above; settings: 10 days
Summary of the method: as §2

[14] = tested on: galium (catchweed bedstraw, Galium aparine); assay: as above; settings: 10 days
Summary of the method: as §2

[15] = tested on: blackgrass (Alopecurus myosuroides); assay: as above; settings: 10 days
Summary of the method: as §2

[16] = tested on: oat, wild (wild oat, Avena fatua); assay: as above; settings: 10 days
Summary of the method: as §2

[17] = tested on: green foxtail (Setaria viridis); assay: Test A preemergence soil spray, visual injury rating 0-100; settings: 10 days, 0 = no effect, 100 = complete control
Summary of the method: as §2

[18] = tested on: ryegrass, Italian (italian ryegrass, Lolium multiflorum); assay: as above; settings: 10 days, 0 = no effect, 100 = complete control
Summary of the method: as §2

soybean (Glycine max) [19] = assay: as above; settings: 10 days, 0 = no effect, 100 = complete control
Summary of the method: as §2

[20] = tested on: palmer (palmer amaranth, palmer pigweed, Amaranthus palmeri); assay: as above; settings: 10 days, 0 = no effect, 100 = complete control
Summary of the method: as §2

[21] = tested on: wheat (Triticum aestivum); assay: as above; settings: 10 days, 0 = no effect, 100 = complete control
Summary of the method: as §2

kochia (Bassia scoparia) [22] = assay: as above; settings: 10 days, 0 = no effect, 100 = complete control
Summary of the method: as §2

corn (Zea mays) [23] = assay: as above; settings: 10 days, 0 = no effect, 100 = complete control
Summary of the method: as §2

[24] = tested on: ragweed (common ragweed, Ambrosia artemisiifolia); assay: as above; settings: 10 days, 0 = no effect, 100 = complete control
Summary of the method: as §2

[25] = tested on: barnyardgrass (Echinochloa crus-galli); assay: as above; settings: 10 days, 0 = no effect, 100 = complete control
Summary of the method: as §2

[26] = tested on: blackgrass (Alopecurus myosuroides); assay: as above; settings: 10 days, 0 = no effect, 100 = complete control
Summary of the method: as §2

[27] = tested on: oat, wild (wild oat, Avena fatua); assay: as above; settings: 10 days, 0 = no effect, 100 = complete control
Summary of the method: as §2

[28] = 31 g ai/ha, postemergence, 0 = no effect, 100 = complete control
[29] = Postemergence, 125 g ai/ha, 0 is no effect, 100 is complete control

**Q.** What does the source list for `CSCCOC(=O)C1=CCC(NC(=O)C2(C)CN(c3cc(F)cc(F)c3)C(=O)O2)C1` (stereo not shown) [Compound 22]?
**A.** Plant response rating, Barnyardgrass (0 to 100 scale, 0 is no effect and 100 is complete control) [1]: 0; Plant response rating, Ducksalad (0 to 100 scale, 0 is no effect and 100 is complete control) [2]: 0; Plant response rating, Rice (0 to 100 scale, 0 is no effect and 100 is complete control) (rice (Oryza sativa)): 0; Plant response rating, Sedge, Umbrella (0 to 100 scale, 0 is no effect and 100 is complete control) [3]: 0; Foxtail, Green plant response rating (0-100) [4, 28]: 20; Foxtail, Green plant response rating (0 to 100 scale) [4, 29]: 80; Ryegrass, Italian plant response rating (0-100) [5, 28]: 60; Ryegrass, Italian plant response rating (0 to 100 scale) [5, 29]: 70; Soybean plant response rating (0-100) (soybean (Glycine max) [6]; [28]): 70; Soybean plant response rating (0 to 100 scale) (soybean (Glycine max) [6]; [29]): 90; Amaranth, Palmer plant response rating (0-100) [7, 28]: 20; Amaranth, Palmer / Pigweed, Palmer plant response rating (0 to 100 scale) [7, 29]: 80; Wheat plant response rating (0-100) [8, 28]: 90; Wheat plant response rating (0 to 100 scale) [8, 29]: 90; Kochia plant response rating (0-100) (kochia (Bassia scoparia) [9]; [28]): 60; Kochia plant response rating (0 to 100 scale) (kochia (Bassia scoparia) [9]; [29]): 90; Horseweed plant response rating (0-100) [10, 28]: 0; Horseweed plant response rating (0 to 100 scale) [10, 29]: 30; Corn plant response rating (0-100) (corn (Zea mays) [11]; [28]): 50; Corn plant response rating (0 to 100 scale) (corn (Zea mays) [11]; [29]): 100; Ragweed plant response rating (0-100) [12, 28]: 0; Ragweed plant response rating (0 to 100 scale) [12, 29]: 50; Barnyardgrass plant response rating (0-100) [13, 28]: 70; Barnyardgrass plant response rating (0 to 100 scale) [13, 29]: 90; Galium plant response rating (0-100) [14, 28]: 60; Galium plant response rating (0 to 100 scale) [14, 29]: 80; Blackgrass plant response rating (0-100) [15, 28]: 60; Blackgrass plant response rating (0 to 100 scale) [15, 29]: 80; Oat, Wild plant response rating (0-100) [16, 28]: 40; Oat, Wild plant response rating (0 to 100 scale) [16, 29]: 70; Foxtail, Green plant response rating (0-100) ([17]; 31 g ai/ha): 0; Foxtail, Green plant response rating (0 to 100 scale) ([17]; 125 g ai/ha): 30; Ryegrass, Italian plant response rating (0-100) ([18]; 31 g ai/ha): 0; Ryegrass, Italian plant response rating (0 to 100 scale) ([18]; 125 g ai/ha): 50; Soybean plant response rating (0-100) (soybean (Glycine max) [19]; 31 g ai/ha): 0; Soybean plant response rating (0 to 100 scale) (soybean (Glycine max) [19]; 125 g ai/ha): 10; Amaranth, Palmer plant response rating (0-100) ([20]; 31 g ai/ha): 0; Amaranth, Palmer plant response rating (0 to 100 scale) ([20]; 125 g ai/ha): 80; Wheat plant response rating (0-100) ([21]; 31 g ai/ha): 20; Wheat plant response rating (0 to 100 scale) ([21]; 125 g ai/ha): 60; Kochia plant response rating (0-100) (kochia (Bassia scoparia) [22]; 31 g ai/ha): 0; Kochia plant response rating (0 to 100 scale) (kochia (Bassia scoparia) [22]; 125 g ai/ha): 0; Corn plant response rating (0-100) (corn (Zea mays) [23]; 31 g ai/ha): 20; Corn plant response rating (0 to 100 scale) (corn (Zea mays) [23]; 125 g ai/ha): 20; Ragweed plant response rating (0-100) ([24]; 31 g ai/ha): 0; Ragweed plant response rating (0 to 100 scale) ([24]; 125 g ai/ha): 0; Barnyardgrass plant response rating (0-100) ([25]; 31 g ai/ha): 0; Barnyardgrass plant response rating (0 to 100 scale) ([25]; 125 g ai/ha): 0; Blackgrass plant response rating (0-100) ([26]; 31 g ai/ha): 0; Blackgrass plant response rating (0 to 100 scale) ([26]; 125 g ai/ha): 20; Oat, Wild plant response rating (0-100) ([27]; 31 g ai/ha): 0; Oat, Wild plant response rating (0 to 100 scale) ([27]; 125 g ai/ha): 20
